Measured values taken from patent US20230406849A1, “KRAS INHIBITORS FOR TREATMENT OF CANCERS” (TYLIGAND BIOSCIENCE (SHANGHAI) LIMITED, priority 2020, published 2023).
Like-named read-outs stand apart in the source and are kept apart here.

What was measured:
[1] = target: T1, CYP1A2 (Homo sapiens, UniProt P05177); assay: CYP inhibition in human liver microsomes; assay type: in vitro ADME; details: pH 7.4, read-out: CYP inhibition rate (%) 1A2
T1 construct: Human liver microsomes (Corning, Cat #452161); tissue Corning 452161; host or cells: human liver microsomes
T1 sequence (P05177 1-516): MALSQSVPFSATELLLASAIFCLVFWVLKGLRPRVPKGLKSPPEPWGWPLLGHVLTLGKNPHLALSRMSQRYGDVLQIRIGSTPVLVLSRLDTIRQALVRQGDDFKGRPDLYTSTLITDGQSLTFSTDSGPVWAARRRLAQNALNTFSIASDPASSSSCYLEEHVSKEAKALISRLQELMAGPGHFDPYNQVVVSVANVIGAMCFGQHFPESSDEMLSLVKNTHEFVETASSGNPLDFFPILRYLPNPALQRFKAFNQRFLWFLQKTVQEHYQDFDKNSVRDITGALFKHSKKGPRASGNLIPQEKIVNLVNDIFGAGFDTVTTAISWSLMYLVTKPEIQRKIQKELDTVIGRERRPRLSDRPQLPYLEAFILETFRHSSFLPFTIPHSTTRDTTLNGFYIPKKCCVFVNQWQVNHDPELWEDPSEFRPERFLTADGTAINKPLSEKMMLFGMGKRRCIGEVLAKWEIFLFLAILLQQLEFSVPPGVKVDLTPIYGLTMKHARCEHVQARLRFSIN
Source text: (§1) The inhibitory effect of the compounds of the present disclosure on the cytochrome P450 enzyme system was investigated in this assay.
(§2) [Test materials]: Human liver microsomes (Corning, Cat #452161); Reduced nicotinamide adenine dinucleotide phosphate (NADPH, MCE, Cat #HY-F0003/CS-4998); Phenacetin, Diclofenac, α-naphthoflavone, Omeprazole and Ketoconazole were purchased from TCI; S-Mephenytoin and testosterone were purchased from CAYMAN; Midazolam was purchased from Bioreclamation IVT; Quinidine was purchased from Damas-beta; Sulfaphenazole was purchased from MCE; Bufuralol was purchased from TRC.
(§3) [Experimental procedure]: Preparation of 0.1M potassium phosphate buffer (K-buffer): 100 mM potassium phosphate buffer (K-buffer) was prepared with potassium dihydrogen phosphate and dipotassium hydrogen phosphate, and adjusted to pH 7.4.
(§4) Preparation of 400× test compound and reference inhibitor solutions: 8 μL of 10 mM stock solution of the test compounds was mixed with 12 μL of acetonitrile. Preparation of inhibitor cocktail solution for CYP1A2, CYP2C9 and CYP2D6: […] of 1 mM α-naphthoflavone, 10 µL of 40 mM Sulfaphenazole, 10 μL of 10 mM Quinidine and 8 μL DMSO were mixed. Preparation of inhibitor cocktail solution for CYP3A4 and CYP2C19: 8 μL of DMSO solution was mixed with 12 μL of acetonitrile.
(§5) Preparation of 4×NADPH potassium phosphate solution: 66.7 mg of NADPH was added to 10 mL of K-buffer pH7.4. Preparation of 4× substrate potassium phosphate solution: the different substrates were prepared to 4-fold concentration test solutions with 10 mL 0.1M K-buffer according to the concentration requirements.
(§6) Preparation of 0.2 mg/mL human liver microsomes (HLM) solution: […] of 20 mg/mL human liver microsomes was added to […] K-buffer, and the solution was stored in ice bath until use.
(§7) 600 μL of 0.2 mg/mL HLM was added to a 96-well plate, followed by the addition of 3 μL of a 400-fold test compound solution; 200 μL of 0.2 mg/mL HLM was added to a 96-well plate, and 1 μL of the diluted positive control inhibitor solution was added. 30 μL of the compound solution mixed with human liver microsomes was added into a 96-well plate, and 15 μL of substrate solution was added then. The solutions obtained above, and the prepared NADPH solution were pre-incubated at 37° C. for 5 min. 15 μL of the pre-warmed NADPH solution was added to the reaction plate, mixed well, to initiate the reaction. The reaction plate was incubated at 37° C., for 5 minutes (3A4), for 10 minutes (1A2, 2C9, 2D6), for 45 minutes (2C19). At the end of the reaction, 120 μL of acetonitrile containing internal standard was added to quenched the reaction. Samples were vortexed for 10 min, centrifuged at 5594 g for 15 min, and prepared for LC-MS/MS analysis.

[2] = target: T2, CYP3A4 (Homo sapiens, UniProt P08684); assay: CYP inhibition in human liver microsomes; assay type: in vitro ADME
T2 construct: Human liver microsomes (Corning, Cat #452161); tissue Corning 452161; host or cells: human liver microsomes
Source text: as §1, §2, §3, §4, §5, §6, §7

[3] = target: T3, CYP2D6 (Homo sapiens, UniProt P10635); assay: CYP inhibition in human liver microsomes; assay type: in vitro ADME; details: pH 7.4, read-out: CYP inhibition rate (%) 2D6
T3 construct: Human liver microsomes (Corning, Cat #452161); tissue Corning 452161; host or cells: human liver microsomes
Source text: as §1, §2, §3, §4, §5, §6, §7

[4] = target: T4, CYP2C9 (Homo sapiens, UniProt P11712); assay: CYP inhibition in human liver microsomes; assay type: in vitro ADME; details: pH 7.4, read-out: CYP inhibition rate (%) 2C9
T4 construct: Human liver microsomes (Corning, Cat #452161); tissue Corning 452161; host or cells: human liver microsomes
Source text: as §1, §2, §3, §4, §5, §6, §7

[5] = target: T5, CYP2C19 (Homo sapiens, UniProt P33261); assay: CYP inhibition in human liver microsomes; assay type: in vitro ADME; details: pH 7.4, read-out: CYP inhibition rate (%) 2C19
T5 construct: Human liver microsomes (Corning, Cat #452161); tissue Corning 452161; host or cells: human liver microsomes
Source text: as §1, §2, §3, §4, §5, §6, §7

[6] = tested on: human pancreatic cancer Mia PaCa-2 cells xenograft; assay: Subcutaneous xenograft tumor model of Mia PaCa-2 cells in BALB/c nude mouse; assay type: in vivo; details: Mia PaCa-2 xenograft, BALB/c nude mice, gavage once a day; for TGI(%): Day 21
Procedure: The in vivo efficacy of the representative compounds of the present disclosure in the subcutaneous xenograft tumor model of human pancreatic cancer Mia PaCa-2 cells was evaluated.
[Test materials]: BALB/c nude mice of 6-8 weeks, female, Zhejiang Vital River Laboratory Animal Technology Co., Ltd. Human pancreatic cancer Mia PaCa-2 cells (ATCC, Cat #: CRL-1420). Matrigel (Matrigel, Corning, Cat. No. 356234).
[Experimental procedure]: 0.2 mL (5×10^6) Mia PaCa-2 cells (plus Matrigel, volume ratio 1:1) were inoculated subcutaneously on the right back dorsal of each mouse. […] During the assay, tumor volumes and body weights were measured twice a week.
The tumor volume was calculated according to the following formula: V=0.5a×b^2, where a and b represent the long and short diameters of the tumor, respectively.

[7] = pH 7.4, probe midazolam, substrate midazolam, read-out: CYP inhibition rate (%) CYP3A4 (midazolam)
[8] = pH 7.4, probe testosterone, substrate testosterone, read-out: CYP inhibition rate (%) CYP3A4 (testosterone)

T2 sequence (P08684 whole entry): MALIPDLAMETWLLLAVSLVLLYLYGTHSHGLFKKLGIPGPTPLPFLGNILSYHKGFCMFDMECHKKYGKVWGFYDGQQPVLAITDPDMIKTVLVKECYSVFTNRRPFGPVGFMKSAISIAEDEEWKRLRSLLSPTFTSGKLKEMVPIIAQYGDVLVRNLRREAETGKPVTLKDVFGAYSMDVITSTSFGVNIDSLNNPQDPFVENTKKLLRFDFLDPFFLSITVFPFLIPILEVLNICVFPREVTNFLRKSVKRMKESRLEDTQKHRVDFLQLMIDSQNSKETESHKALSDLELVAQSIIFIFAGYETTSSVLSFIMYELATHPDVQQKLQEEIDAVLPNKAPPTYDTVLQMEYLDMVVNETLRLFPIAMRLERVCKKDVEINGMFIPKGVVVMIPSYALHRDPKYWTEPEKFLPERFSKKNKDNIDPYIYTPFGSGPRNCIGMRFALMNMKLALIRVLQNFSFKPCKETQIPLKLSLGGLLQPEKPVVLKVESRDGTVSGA
T5 sequence (P33261 whole entry): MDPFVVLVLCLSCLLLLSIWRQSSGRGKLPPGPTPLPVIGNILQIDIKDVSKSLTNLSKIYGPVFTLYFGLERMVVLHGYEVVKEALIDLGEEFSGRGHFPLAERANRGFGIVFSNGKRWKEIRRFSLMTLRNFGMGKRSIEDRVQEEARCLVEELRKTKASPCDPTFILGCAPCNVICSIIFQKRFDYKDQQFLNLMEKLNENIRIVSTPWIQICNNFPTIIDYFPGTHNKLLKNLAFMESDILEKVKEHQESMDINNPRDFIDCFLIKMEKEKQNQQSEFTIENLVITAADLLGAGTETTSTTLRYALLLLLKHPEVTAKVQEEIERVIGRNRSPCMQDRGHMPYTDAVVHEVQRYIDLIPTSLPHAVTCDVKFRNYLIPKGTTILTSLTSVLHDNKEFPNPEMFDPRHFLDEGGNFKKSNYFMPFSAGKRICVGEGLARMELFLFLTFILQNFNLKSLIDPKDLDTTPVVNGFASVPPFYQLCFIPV
T4 sequence (P11712 whole entry): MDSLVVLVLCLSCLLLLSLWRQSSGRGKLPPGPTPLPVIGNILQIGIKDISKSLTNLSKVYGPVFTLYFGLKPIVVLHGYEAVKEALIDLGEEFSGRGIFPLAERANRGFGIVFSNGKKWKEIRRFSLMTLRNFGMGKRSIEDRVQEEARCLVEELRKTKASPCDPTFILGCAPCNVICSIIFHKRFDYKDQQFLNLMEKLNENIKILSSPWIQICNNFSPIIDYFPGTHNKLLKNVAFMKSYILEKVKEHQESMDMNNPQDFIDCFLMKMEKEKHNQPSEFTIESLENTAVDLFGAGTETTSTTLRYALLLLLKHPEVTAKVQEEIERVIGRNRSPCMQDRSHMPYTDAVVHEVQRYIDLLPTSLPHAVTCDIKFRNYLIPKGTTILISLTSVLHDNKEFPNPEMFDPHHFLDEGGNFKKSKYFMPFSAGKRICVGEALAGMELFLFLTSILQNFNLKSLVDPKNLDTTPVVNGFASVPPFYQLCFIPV
T3 sequence (P10635 whole entry): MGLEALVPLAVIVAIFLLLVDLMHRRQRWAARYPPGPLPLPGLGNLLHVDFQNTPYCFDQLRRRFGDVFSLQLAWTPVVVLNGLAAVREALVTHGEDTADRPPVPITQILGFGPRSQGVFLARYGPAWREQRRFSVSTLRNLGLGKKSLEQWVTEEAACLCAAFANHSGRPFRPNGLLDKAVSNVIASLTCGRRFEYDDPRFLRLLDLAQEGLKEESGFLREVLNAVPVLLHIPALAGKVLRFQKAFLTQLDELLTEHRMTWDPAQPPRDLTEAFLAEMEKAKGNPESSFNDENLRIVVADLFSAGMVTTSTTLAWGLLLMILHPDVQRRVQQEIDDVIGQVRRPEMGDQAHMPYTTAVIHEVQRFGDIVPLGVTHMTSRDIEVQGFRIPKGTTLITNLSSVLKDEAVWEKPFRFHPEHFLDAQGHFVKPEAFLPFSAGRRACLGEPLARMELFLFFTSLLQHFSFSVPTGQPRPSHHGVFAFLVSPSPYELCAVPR

inhibition at 10 min, 10 µM [1]	inhibition at 5 min, 10 µM [2, 7]	inhibition at 5 min, 10 µM [2, 8]	inhibition at 10 min, 10 µM [3]	inhibition at 10 min, 10 µM [4]	inhibition at 45 min, 10 µM [5]	Compound	Tumor volume (mm^3) (Day 21) ([6]; 10 mpk)	TGI(%) ([6]; 10 mpk)	Tumor volume (mm^3) (Day 21) ([6]; 3 mpk)	TGI(%) ([6]; 3 mpk)	Tumor volume (mm^3) (Day 21) ([6]; 30 mpk)	TGI(%) ([6]; 30 mpk)
10.3%	63.7%	24.8%	23.7%	26.2%	11.1%	C=CC(=O)N1CCN(c2nc(=O)n(-c3c(C)ccnc3C(C)C)c3nc(-c4c(O)cccc4F)c(F)cc23)[C@@H](C)C1 (atropisomer, axis not shown) [AMG510, reference compound]	432 mm^3	72.3%				
13.6%	24%	30.9%	-11.4%	42.5%	34.9%	C=CC(=O)N1CCN(c2c(C#N)cnc3c(F)c(-c4ccc(F)c5sc(N)nc45)c(Cl)cc23)CC1 [Example 9, 4-(4-Acryloylpiperazin-1-yl)-7-(2-amino-7-fluorobenzo[d]thiazol-4-yl)-6-chloro-8-fluoroquinoline-3-carbonitrile]	246 mm^3	89.8%	665 mm^3	50.4%	162 mm^3	97.7%
17.6%	22%	16.9%	13.8%	49.9%	31.2%	C=CC(=O)N1CCN(c2c(C#N)cnc3c(F)c(-c4ccc(F)c5sc(N)nc45)c(Cl)cc23)C[C@H]1C [Example 8, 4-((R)-4-acryloyl-3-methylpiperazin-1-yl)-7-(2-amino-7-fluorobenzo[d]thiazol-4-yl)-6-chloro-8-fluoroquinoline-3-carbonitrile]						
73%	11.1%	10.9%	32.6%	52.4%	74.3%	C=CC(=O)N1CCN(c2ncnc3c(F)c(-c4ccc(F)c5sc(N)nc45)c(Cl)cc23)CC1 [Ref. Comp. A, reference compound]						
